# Results as given in patent US8410161B2, “Thioxanthone ring system derivatives” (National Defense Medical Center, priority 2010, dated 2013).
# Tests used:
# HOP-92 = assay: NCI in vitro DTP human cell line screen, HOP-92; type: cell-based; settings: Non-Small Cell Lung Cancer, 1.00E−5 Molar
# Experimental: (§1) Then, a cell toxicity assay of the cancer lines made by National Cancer Institute will be discussed as follows. The cell toxicity assay is performed by choosing ten compounds (existing certification numbers) from the 59 compounds disclosed in the present invention first.
# LOX IMVI = assay: NCI in vitro DTP human cell line screen, LOX IMVI; type: cell-based; settings: Melanoma, 1.00E−5 Molar
# Experimental: as §1
# MDA-MB-435 = assay: NCI in vitro DTP human cell line screen, MDA-MB-435; type: cell-based; settings: Melanoma, 1.00E−5 Molar
# Experimental: as §1
# CCRF-CEM = assay: NCI in vitro DTP human cell line screen, CCRF-CEM; type: cell-based; settings: Leukemia, 1.00E−5 Molar
# Experimental: as §1
# HL-60(TB) = assay: NCI in vitro DTP human cell line screen, HL-60(TB); type: cell-based; settings: Leukemia, 1.00E−5 Molar
# Experimental: as §1
# MDA-MB-231/ATCC = assay: NCI in vitro DTP human cell line screen, MDA-MB-231/ATCC; type: cell-based; settings: Breast Cancer, 1.00E−5 Molar
# Experimental: as §1
# A control cell lines = assay: MTT assay, A control cell lines (lung cancer cell); type: cell-based
# Text: Please refer to Table 1 and FIGS. 4A-4C. According to a MTT assay (Table 1), various cell viabilities of the A control cell lines can be obtained and illustrated in FIG. 4A while the compounds No. 2˜30 are used to treat A control cell lines, wherein A control cell lines are lung cancer cell.
# 60 cancer lines = assay: NCI cell toxicity assay of 60 cancer lines, whole panel summary; type: cell-based, human; settings: mean over all cell lines; 1.00E−5 Molar
# Experimental: as §1
# EKVX = assay: NCI in vitro DTP human cell line screen, EKVX; type: cell-based; settings: Non-Small Cell Lung Cancer, 1.00E−5 Molar
# Experimental: as §1
# ACHN = assay: NCI in vitro DTP human cell line screen, ACHN; type: cell-based; settings: Renal Cancer, 1.00E−5 Molar
# Experimental: as §1
# OVCAR-5 = assay: NCI in vitro DTP human cell line screen, OVCAR-5; type: cell-based; settings: Ovarian Cancer, 1.00E−5 Molar
# Experimental: as §1
# COLO 205 = assay: NCI in vitro DTP human cell line screen, COLO 205; type: cell-based; settings: Colon Cancer, 1.00E−5 Molar
# Experimental: as §1
# NCI-H226 = assay: NCI in vitro DTP human cell line screen, NCI-H226; type: cell-based; settings: Non-Small Cell Lung Cancer, 1.00E−5 Molar
# Experimental: as §1
# IGROV1 = assay: NCI in vitro DTP human cell line screen, IGROV1; type: cell-based; settings: Ovarian Cancer, 1.00E−5 Molar
# Experimental: as §1
# NCI-H23 = assay: NCI in vitro DTP human cell line screen, NCI-H23; type: cell-based; settings: Non-Small Cell Lung Cancer, 1.00E−5 Molar
# Experimental: as §1
# PC-3 = assay: NCI in vitro DTP human cell line screen, PC-3; type: cell-based; settings: Prostate Cancer, 1.00E−5 Molar
# Experimental: as §1
# U251 = assay: NCI in vitro DTP human cell line screen, U251; type: cell-based; settings: CNS Cancer, 1.00E−5 Molar
# Experimental: as §1
# MDA-MB-468 = assay: NCI in vitro DTP human cell line screen, MDA-MB-468; type: cell-based; settings: Breast Cancer, 1.00E−5 Molar
# Experimental: as §1
# HCC-2998 = assay: NCI in vitro DTP human cell line screen, HCC-2998; type: cell-based; settings: Colon Cancer, 1.00E−5 Molar
# Experimental: as §1
# SK-MEL-28 = assay: NCI in vitro DTP human cell line screen, SK-MEL-28; type: cell-based; settings: Melanoma, 1.00E−5 Molar
# Experimental: as §1
# HCT-116 = assay: NCI in vitro DTP human cell line screen, HCT-116; type: cell-based; settings: Colon Cancer, 1.00E−5 Molar
# Experimental: as §1
# NCI-H460 = assay: NCI in vitro DTP human cell line screen, NCI-H460; type: cell-based; settings: Non-Small Cell Lung Cancer, 1.00E−5 Molar
# Experimental: as §1
# SNB-75 = assay: NCI in vitro DTP human cell line screen, SNB-75; type: cell-based; settings: CNS Cancer, 1.00E−5 Molar
# Experimental: as §1
# DU145 = assay: NCI in vitro DTP human cell line screen, DU145; type: cell-based; settings: Prostate Cancer, 1.00E−5 Molar
# Experimental: as §1
# CAKI-1 = assay: NCI in vitro DTP human cell line screen, CAKI-1; type: cell-based; settings: Renal Cancer, 1.00E−5 Molar
# Experimental: as §1
# NCI/ADR-RES = assay: NCI in vitro DTP human cell line screen, NCI/ADR-RES; type: cell-based; settings: Ovarian Cancer, 1.00E−5 Molar
# Experimental: as §1
# K562 = assay: NCI in vitro DTP human cell line screen, K562; type: cell-based; settings: Leukemia, 1.00E−5 Molar
# Experimental: as §1
# MCF7 = assay: NCI in vitro DTP human cell line screen, MCF7; type: cell-based; settings: Breast Cancer, 1.00E−5 Molar
# Experimental: as §1
# SW-620 = assay: NCI in vitro DTP human cell line screen, SW-620; type: cell-based; settings: Colon Cancer, 1.00E−5 Molar
# Experimental: as §1
# OVCAR-4 = assay: NCI in vitro DTP human cell line screen, OVCAR-4; type: cell-based; settings: Ovarian Cancer, 1.00E−5 Molar
# Experimental: as §1
# MOLT-4 = assay: NCI in vitro DTP human cell line screen, MOLT-4; type: cell-based; settings: Leukemia, 1.00E−5 Molar
# Experimental: as §1
# UACC-257 = assay: NCI in vitro DTP human cell line screen, UACC-257; type: cell-based; settings: Melanoma, 1.00E−5 Molar
# Experimental: as §1
# SK-MEL-2 = assay: NCI in vitro DTP human cell line screen, SK-MEL-2; type: cell-based; settings: Melanoma, 1.00E−5 Molar
# Experimental: as §1
# HS 578-T = assay: NCI in vitro DTP human cell line screen, HS 578-T; type: cell-based; settings: Breast Cancer, 1.00E−5 Molar
# Experimental: as §1
# M14 = assay: NCI in vitro DTP human cell line screen, M14; type: cell-based; settings: Melanoma, 1.00E−5 Molar
# Experimental: as §1
# OVCAR-8 = assay: NCI in vitro DTP human cell line screen, OVCAR-8; type: cell-based; settings: Ovarian Cancer, 1.00E−5 Molar
# Experimental: as §1
# NCI-H522 = assay: NCI in vitro DTP human cell line screen, NCI-H522; type: cell-based; settings: Non-Small Cell Lung Cancer, 1.00E−5 Molar
# Experimental: as §1
# RPMI-8226 = assay: NCI in vitro DTP human cell line screen, RPMI-8226; type: cell-based; settings: Leukemia, 1.00E−5 Molar
# Experimental: as §1
# MALME-3M = assay: NCI in vitro DTP human cell line screen, MALME-3M; type: cell-based; settings: Melanoma, 1.00E−5 Molar
# Experimental: as §1
# UO-31 = assay: NCI in vitro DTP human cell line screen, UO-31; type: cell-based; settings: Renal Cancer, 1.00E−5 Molar
# Experimental: as §1
# HT29 = assay: NCI in vitro DTP human cell line screen, HT29; type: cell-based; settings: Colon Cancer, 1.00E−5 Molar
# Experimental: as §1
# SR = assay: NCI in vitro DTP human cell line screen, SR; type: cell-based; settings: Leukemia, 1.00E−5 Molar
# Experimental: as §1
# 786-0 = assay: NCI in vitro DTP human cell line screen, 786-0; type: cell-based; settings: Renal Cancer, 1.00E−5 Molar
# Experimental: as §1
# TK-10 = assay: NCI in vitro DTP human cell line screen, TK-10; type: cell-based; settings: Renal Cancer, 1.00E−5 Molar
# Experimental: as §1
# SK-OV-3 = assay: NCI in vitro DTP human cell line screen, SK-OV-3; type: cell-based; settings: Ovarian Cancer, 1.00E−5 Molar
# Experimental: as §1
# NCI-H322M = assay: NCI in vitro DTP human cell line screen, NCI-H322M; type: cell-based; settings: Non-Small Cell Lung Cancer, 1.00E−5 Molar
# Experimental: as §1
# HCT-15 = assay: NCI in vitro DTP human cell line screen, HCT-15; type: cell-based; settings: Colon Cancer, 1.00E−5 Molar
# Experimental: as §1
# SF-295 = assay: NCI in vitro DTP human cell line screen, SF-295; type: cell-based; settings: CNS Cancer, 1.00E−5 Molar
# Experimental: as §1
# SF-539 = assay: NCI in vitro DTP human cell line screen, SF-539; type: cell-based; settings: CNS Cancer, 1.00E−5 Molar
# Experimental: as §1
# KM12 = assay: NCI in vitro DTP human cell line screen, KM12; type: cell-based; settings: Colon Cancer, 1.00E−5 Molar
# Experimental: as §1
# T-47D = assay: NCI in vitro DTP human cell line screen, T-47D; type: cell-based; settings: Breast Cancer, 1.00E−5 Molar
# Experimental: as §1
# BT-549 = assay: NCI in vitro DTP human cell line screen, BT-549; type: cell-based; settings: Breast Cancer, 1.00E−5 Molar
# Experimental: as §1
# OVCAR-3 = assay: NCI in vitro DTP human cell line screen, OVCAR-3; type: cell-based; settings: Ovarian Cancer, 1.00E−5 Molar
# Experimental: as §1
# A3 cell lines = assay: MTT assay, A3 cell lines (lung cancer stem cell); type: cell-based
# Text: Please to FIG. 4B, various cell viabilities of the A3 cell lines can be obtained through the MTT assay and illustrated in FIG. 4B while the compounds No. 1˜30 are used to treat A3 cell lines, wherein A3 cell lines are lung cancer stem cell.
# SK-MEL-5 = assay: NCI in vitro DTP human cell line screen, SK-MEL-5; type: cell-based; settings: Melanoma, 1.00E−5 Molar
# Experimental: as §1
# SF-268 = assay: NCI in vitro DTP human cell line screen, SF-268; type: cell-based; settings: CNS Cancer, 1.00E−5 Molar
# Experimental: as §1
# [1] = MTT assay, HEL299 fibroblast; type: cell-based; settings: human
# Text: Please refer to FIG. 4C, various cell viabilities of the HEL299 cell lines can be obtained through the MTT assay while the compounds No. 1˜30 are used to treat HEL299 cell lines, wherein HEL299 cell lines are fibroblast.
smiles,measurement,setting,value
"Cc1cccc(C)c1Sc1ccc2c(=O)c3ccccc3sc2c1Cl [No. 12, 4-Chloro-3-(2,6-dimethylphenylthio)-9H-thioxanthen-9-one]",Growth Percent,HOP-92,88.79%
same,Growth Percent,LOX IMVI,105.37%
same,Growth Percent,MDA-MB-435,107.09%
same,Growth Percent,CCRF-CEM,88.07%
same,Growth Percent,HL-60(TB),109.07%
same,Growth Percent,MDA-MB-231/ATCC,108.12%
same,cell viabilities of A control cell lines (MTT assay),A control cell lines,103 ± 5.86%
same,"Growth Percent, Mean",60 cancer lines,102.52%
same,Growth Percent,EKVX,103.89%
same,Growth Percent,ACHN,103.68%
same,Growth Percent,OVCAR-5,96.86%
same,Growth Percent,COLO 205,110.46%
same,Growth Percent,NCI-H226,109.77%
same,Growth Percent,IGROV1,98.49%
same,Growth Percent,NCI-H23,93.96%
same,Growth Percent,PC-3,98.56%
same,Growth Percent,U251,95.70%
same,Growth Percent,MDA-MB-468,113.20%
same,Growth Percent,HCC-2998,103.54%
same,Growth Percent,SK-MEL-28,110.00%
same,Growth Percent,HCT-116,105.21%
same,Growth Percent,NCI-H460,110.85%
same,Growth Percent,SNB-75,90.00%
same,Growth Percent,DU145,109.56%
same,Growth Percent,CAKI-1,89.35%
same,Growth Percent,NCI/ADR-RES,105.14%
same,Growth Percent,K562,97.86%
same,Growth Percent,MCF7,94.01%
same,Growth Percent,SW-620,105.40%
same,Growth Percent,OVCAR-4,107.51%
same,Growth Percent,MOLT-4,104.33%
same,Growth Percent,UACC-257,92.09%
same,Growth Percent,SK-MEL-2,108.94%
same,Growth Percent,HS 578-T,107.64%
same,Growth Percent,M14,105.63%
same,Growth Percent,OVCAR-8,96.86%
same,Growth Percent,NCI-H522,100.28%
same,Growth Percent,RPMI-8226,101.60%
same,Growth Percent,MALME-3M,100.81%
same,Growth Percent,UO-31,87.03%
same,Growth Percent,HT29,103.86%
same,Growth Percent,SR,95.93%
same,Growth Percent,786-0,108.98%
same,Growth Percent,TK-10,99.22%
same,Growth Percent,SK-OV-3,111.32%
same,Growth Percent,NCI-H322M,113.78%
same,Growth Percent,HCT-15,99.05%
same,Growth Percent,SF-295,98.15%
same,Growth Percent,SF-539,106.48%
same,Growth Percent,KM12,113.08%
same,Growth Percent,T-47D,97.56%
same,Growth Percent,BT-549,105.28%
same,Growth Percent,OVCAR-3,113.05%
same,cell viabilities of A3 cell lines (MTT assay),A3 cell lines,102 ± 9.52%
same,Growth Percent,SK-MEL-5,104.77%
same,Growth Percent,SF-268,98.33%
same,viability,[1],101 ± 9.52%
